The values below come from article PMC9269349, “Characterization of Four New Compounds from Protea cynaroides Leaves and Their Tyrosinase Inhibitory Potential” (Plants, 2022).

mushroom tyrosinase, sequence (G1K3P4 entry or part of it): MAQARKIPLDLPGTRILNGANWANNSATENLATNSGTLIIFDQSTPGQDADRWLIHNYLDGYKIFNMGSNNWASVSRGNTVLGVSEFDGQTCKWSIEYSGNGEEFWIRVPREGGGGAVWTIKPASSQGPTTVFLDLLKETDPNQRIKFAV
mushroom tyrosinase, sequence (C7FF04 1-392): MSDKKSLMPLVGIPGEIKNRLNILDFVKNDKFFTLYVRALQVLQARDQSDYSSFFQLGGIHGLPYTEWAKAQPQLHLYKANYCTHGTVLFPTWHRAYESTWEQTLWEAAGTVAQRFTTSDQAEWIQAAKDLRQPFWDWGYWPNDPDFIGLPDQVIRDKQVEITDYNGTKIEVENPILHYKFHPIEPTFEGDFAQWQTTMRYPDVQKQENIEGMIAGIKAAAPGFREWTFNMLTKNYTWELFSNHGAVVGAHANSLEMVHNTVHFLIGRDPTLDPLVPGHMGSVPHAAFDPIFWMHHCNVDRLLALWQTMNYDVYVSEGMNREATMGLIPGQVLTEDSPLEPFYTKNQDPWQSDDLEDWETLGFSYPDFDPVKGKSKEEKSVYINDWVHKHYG

This experiment concerns the target mushroom tyrosinase (Agaricus bisporus, UniProt C7FF04). Description: Antityrosinase inhibition assay (L-tyrosine substrate, absorbance at 490 nm). The format is biochemical. The conditions noted are these: against L-tyrosine substrate. As for the experimental part: The skin enzymatic inhibitory assay was executed during the study following the approach used by Curto et al. and Nerya et al.. Extracts and isolates were dissolved in dimethyl sulfoxide (DMSO) to a final concentration of 20 mg/mL. […] After incubation at room temperature for 5 min, 110 μL of the substrate (2 mM L-tyrosine) was added to each well. […] Incubation commenced for 30 min at room temperature by measuring the absorbance at 490 nm with the […]1.11).
As to `O=C(O)c1ccc(O)c(O)c1` [Compound 7, 3,4-dihydroxybenzoic acid], the “tyrosinase inhibitory activity (in words)” value is on record as “potent competitive tyrosinase inhibition”.

Consider `O=C(O)c1ccc(O)cc1` [Compound 6, 4-hydroxybenzoic acid], for which the “tyrosinase inhibitory activity (in words)” value was “weak activity”.

For `OC[C@H]1OC[C@H](O)[C@@H](O)[C@@H]1O` [Compound 5, 1,5-anhydro-D-glucitol], the “tyrosinase inhibitory activity (in words)” value is “weak activity”.

Regarding `O=C(OCC1OC(Oc2c(CO)occc2=O)C(O)C(O)C1O)c1ccc(O)cc1` (centres unmarked) [Compound 3], the “tyrosinase inhibitory activity (in words)” value was “low inhibitory activity”.

`O=c1c(O)coc(CO)c1O` [Compound 8, 3-hydroxykojic acid]: the “tyrosinase inhibitory activity (in words)” value is listed as “potent competitive tyrosinase inhibition”.
